# pIC50: −log10 of the molar value.
# Tests used:
# Jurkat cells = experiment: PARP cleavage in Jurkat cells (immunoblot); format: cell-based, human; conditions: 50 μM compound or 1 μM staurosporin, 6 hr
# Protocol: (C) DNA fragmentation analysis. […] Cell viability assay.
# Compounds were then tested for their ability to induce apoptosis in live cells. The ability of the compounds to activate caspase-3 in a Jurkat cell line was first assayed. […] This same pattern was seen when we assayed for the cleavage of poly (ADP-ribose) polymerase (PARP), a cellular substrate of caspases-3 and -7 (see, D. W. Nicholson, Cell Death Differ 6, 1028-42 (1999)). Upon apoptosis, PAR-P is cleaved from a 116 kD to an 85 kD protein.
# [1] = tested on: caspase-3 (DEVDase activity); experiment: DEVDase fluorescence screen in HeLa cell S-100 cytoplasmic extracts; format: biochemical; conditions: in vitro fluorescence assay, HeLa S-100 extracts with cyto c
# From the text: In order to identify compounds that modulate apoptosis, a chemical genetics approach was utilized to screen for molecules that target components of the apoptosis pathway (see, T. U. Mayer et al., Science 286, 971-4 (1999)). An in vitro screen using cytoplasmic extracts was adapted for apoptosis to a 96-well format and used to test an in-house library of ˜3500 compounds (see, T. Fernandes-Alnemri et al, Proc Natl Acad Sci USA 93, 7464-9 (1996); X. Liu, C. N. Kim, J. Yang, R. Jemmerson, X. Wang, Cell 86, 147-57 (1996); L. M. Leoni et al., Proc Natl Acad Sci USA 95, 9567-71 (1998)). Briefly, individual compounds were added to HeLa cell S-100 cytoplasmic extracts at a final concentration of 1 mM and apoptosis was induced by adding bovine heart cyto c (HeLa cell cytoplasmic extracts were prepared according to previously published reports (see, P. Li et al., Cell 91, 479-89 (1997)). Compounds were distributed into 96-well microtiter plates at a final concentration of 1 mM. To each well was added 250 μg of total protein from cytoplasmic extracts in HEB buffer (50 mM Hepes pH 7.4, 50 mM KCl, 5 mM EGTA, 2 mM MgCl), with 2 mM DTT, 2 μM cyto c, and 0.5 μM DEVD-AFC substrate in a total of 150 μL. Plates were incubated at 37° C. and fluorescence was read in a LJL Biosystems plate reader at 10 min intervals). Activation of caspase-3 was monitored by cleavage of a fluorogenic substrate, Asp-Glu-Val-Asp-7-amino-4-trifluoromethylcoumarin (DEVDase activity). As designed, the DEVDase fluorescence screen encompasses the release of cyto c from the mitochondria to the activation of caspase-3. Possible targets include cyto c, Apaf-1, caspase-9, caspase-3, inhibitors of apoptosis (IAPs), and possible unidentified components present in the cytosol.
# MDA-MB-468 = experiment: Cell viability, MDA-MB-468; format: cell-based; conditions: MDA-MB-468, breast
# From the text: (§1) Normal cell lines include peripheral blood lymphocytes (PBL) isolated from donated human blood, non-transformed mammary fibroblasts (MCF-10A), human mammary epithelial cells (HMEC), human umbilical vein endothelial cells (HUVEC), and human prostate epithelial cells (PREC). Transformed cell lines include cell lines from leukemia, breast, lung, ovarian, and epidermal cancers (Table 1).
# caspase-3 activation = experiment: Caspase-3 activation by gel filtration fractions of Apaf-1 complexes; format: biochemical; conditions: 20 μM compound, 0.15 μM cyto c; for extent of caspase-3 activation: vehicle alone 0.36
# Protocol: FIG. 7 depicts activity of compounds 1-5 at low cyto c concentrations in a purified system. Apaf-1 was incubated with vehicle, cyto c, or cyto c plus 20 μM compound as indicated, and then separated on a Superose 6 gel filtration column. Individual fractions were assayed for relative Apaf-1 concentrations by capture ELISA (bar graph), or the ability to activate procaspase-3 processing in lysates (line graph). The percent of Apaf-1 in apoptosomes was determined by dividing the amount of Apaf-1 in fractions 8-11 by the total amount of Apaf-1. The extent of caspase-3 activation (given in arbitrary units) corresponds to the area under the curve for fractions 8-11 in each panel. Black bars represent fractions used for calculations.
# As the compounds appeared to be acting prior to caspase activation, their effect on the oligomerization of Apaf-1 was assessed (K. Cain, D. G. Brown, C. Langlais, G. M. Cohen, J Biol Chem 274, 22686-92 (1999); K. Cain et al., J Biol Chem 275, 6067-70 (2000)). By gel filtration, Apaf-1 normally runs as a monomer of ˜140 kD (FIG. 7) (see, A. Saleh, S. M. Srinivasula, S. Acharya, R. Fishel, E. S. Alnemri, J Biol Chem 274, 17941-5 (1999)). Incubation of Apaf-1 with 5 μM cyto c induces over 90% of the Apaf-1 to form large complexes of ˜700 kD, whereas incubation with 0.15 μM cyto c concentration allowed only 22% of the Apaf-1 to assemble into complexes. However, the addition of 20 μM compound 2 or 5 at the lower cyto c concentration caused the formation of two higher molecular weight complexes: a major peak that runs at the same retention time as the complex seen at 5 μM cyto c (˜700 kD), and a minor peak that elutes in the void volume. […] To determine if the Apaf-1 complexes induced by the compounds at the lower cyto c concentration are competent for caspase activation, procaspase-9, procaspase-3, and dATP were added to fractions from the gel filtration column and assayed for caspase-3 activation. Fractions from samples that had been incubated with 5 μM cyto c strongly activated caspase-3 processing (FIG. 7, panel ii, line graph), with the maximal caspase activation corresponding to the fractions that contained the apoptosome complex. On the other hand, no fractions form the sample without cyto c activated capsase-3 processing (panel i). There was a small but measurable amount of capsase-3 activation when the cyto c concentration was reduced to 0.15 μM (panel iii). However, the extent of caspase-3 activation at the reduced level of cyto c increased approximately 4-fold when either compound 2 or 5 was added to the reaction (from 0.36 arbitrary units for the vehicle alone to 1.57 and 1.4 for compounds 2 and 5, respectively, panels iv and vi). […]
# SK-OV-3 = experiment: Cell viability, SK-OV-3; format: cell-based
# From the text: as §1
# [2] = tested on: human mammary epithelial cells (HMEC); experiment: Cell viability, HMEC; format: cell-based
Compound,cleavage of PARP (Jurkat cells),activation of DEVDase activity [1],pIC50 (MDA-MB-468),increase in caspase-3 activation over vehicle alone (caspase-3 activation),extent of caspase-3 activation (caspase-3 activation) [arbitrary units],"effect on cells (SK-OV-3; SK-OV-3, deficient in Apaf-1 activity)","pIC50 (SK-OV-3; SK-OV-3, ovarian, Apaf-1 deficient)","effect on cells ([2]; HMEC cells, up to 50 μM)","pIC50 ([2]; HMEC, normal cell)"
O=C1C(=O)N(Cc2ccc(Cl)c(Cl)c2)c2ccccc21 [Compound 2],complete cleavage,strongly activated DEVDase activity,4.36,approximately 4 fold,1.57,no effect,< 4.30,no effect except at the highest concentration,< 4.30
O=C(NCc1ccc(Cl)c(Cl)c1)OC1CCc2ccccc21 (centres unmarked) [Compound 4],–,no activity,–,–,–,–,–,–,–
O=C(NCc1ccc(Cl)c(Cl)c1)OC1CCc2ccccc21 (centres unmarked) [Compound 5],limited processing,strongly activated DEVDase activity,–,approximately 4 fold,1.4,–,–,–,–

# From patent US20030229132A1, “Small molecule modulators of apoptosis” (priority 2002, published 2003)
